Laboratory results: US20250319095A1, “USE OF BENZO[…] INCREASE SENSITIVITY TO […] A CHRONIC SSRI REGIMEN” (Compass Pathfinder Limited, priority 2020, published 2025)
Converted amounts (≈) assume the structure as drawn.

Experiments:
Mouse [1] = assay: Head twitch response to psilocybin after acute diazepam pretreatment; assay type: in vivo
Protocol: (§1) Animals were dosed as detailed by Table 10 below and were placed in a clean cage. The number of head twitches and wet dog shakes were then counted by a scorer for 30 minutes after dosing. The timings of head twitches and wet dog shakes were recorded by a computer program. The experiment was carried out over three days. Scorers were blinded to treatment group.
(§2) Number of head twitches over each 5-minute period and each 15-minute period and the total for 0-30 minutes were square-root transformed and analyzed by three way ANOVA with treatment, day, and scorer as factors. Ethovision data was analyzed by robust regression using M estimation, Huber weighting, using the default parameter C=1.345. The model used treatment, day, and scorer as factors.
(§3) P<0.05 was the level accepted for statistical difference. The chance of a false positive is 5% for each dose for each time. All tests were carried out as two-sided tests.

[2] = Solubility of psilocybin in water
Mouse [3] = assay: Ethovision activity to psilocybin after acute diazepam pretreatment; assay type: in vivo
Protocol: as §1
Ethovision data was organized into 5-minute and 15-minute time periods and 0-30 minutes for each animal. Ethovision scores were log transformed, however Shapiro-Wilk tests were significant for many of the 5-minute and 15-minute time windows. Therefore, robust regression was used to analyze the Ethovision data.
as §2, §3

male C57BL/6J mice = assay: Psilocybin head twitch response with chronic diazepam pre-treatment; assay type: in vivo
Protocol: Sixty-two (60 plus 2 spares;) male C57BL/6J mice (20-25 g upon arrival) were purchased from Charles River UK. Animals were group housed (in 3 s and a pair) in polypropylene cages. Mice were maintained on a normal phase 12 h light-dark cycle (lights on: 07:00-19:00 h) with free access to standard rodent maintenance diet (standard pelleted diet Envigo 2018) and filtered tap water. The holding room was maintained at a temperature of 21±4° C. and relative humidity was 55±15% with prolonged periods below 40% RH or above 70% RH avoided as detailed in the UK Code of Practice. As a refinement, each cage contained sawdust, sizzle nest, a red house, Perspex tunnel, plastic chew stick and a nestlet so that the mice can make nests and facilitate warmth. Mice were weighed upon arrival and provided with wet mash overnight. The following morning, mice were weighed, and the mash removed.
Mice were weighed and allocated into 6 treatment groups by a statistician (as per Table 20 below). […] For groups A-D animals were placed individually in clean cages with a light dusting of sawdust immediately following psilocybin administration (0.3 mg/kg, s.c) for head twitch response assessment. Head twitches were counted by a trained observer over a 30 minute period.
Statistical significance was tested using two-way analysis of variance with treatment and observer as cofactors (Table 21 below).

[4] = 0 to 5 mins, Psilocybin 0.3 mg/kg sc 1 hr post Diazepam 4 mg/kg ip or Saline ip
[5] = 0 to 5 mins, Psilocybin 1 mg/kg sc 1 hr post Diazepam 4 mg/kg ip or Saline ip
[6] = 0 to 5 mins, Psilocybin 3 mg/kg sc 1 hr post Diazepam 4 mg/kg ip or Saline ip
[7] = 0 to 15 mins, Psilocybin 0.3 mg/kg sc 1 hr post Diazepam 4 mg/kg ip or Saline ip
[8] = 0 to 15 mins, Psilocybin 1 mg/kg sc 1 hr post Diazepam 4 mg/kg ip or Saline ip
[9] = 0 to 15 mins, Psilocybin 3 mg/kg sc 1 hr post Diazepam 4 mg/kg ip or Saline ip
[10] = 0 to 30 mins (total), Psilocybin 0.3 mg/kg sc 1 hr post Diazepam 4 mg/kg ip or Saline ip
[11] = 0 to 30 mins (total), Psilocybin 1 mg/kg sc 1 hr post Diazepam 4 mg/kg ip or Saline ip
[12] = 0 to 30 mins (total), Psilocybin 3 mg/kg sc 1 hr post Diazepam 4 mg/kg ip or Saline ip
[13] = 5 to 10 mins, Psilocybin 0.3 mg/kg sc 1 hr post Diazepam 4 mg/kg ip or Saline ip
[14] = 5 to 10 mins, Psilocybin 1 mg/kg sc 1 hr post Diazepam 4 mg/kg ip or Saline ip
[15] = 5 to 10 mins, Psilocybin 3 mg/kg sc 1 hr post Diazepam 4 mg/kg ip or Saline ip
[16] = 10 to 15 mins, Psilocybin 0.3 mg/kg sc 1 hr post Diazepam 4 mg/kg ip or Saline ip
[17] = 10 to 15 mins, Psilocybin 1 mg/kg sc 1 hr post Diazepam 4 mg/kg ip or Saline ip
[18] = 10 to 15 mins, Psilocybin 3 mg/kg sc 1 hr post Diazepam 4 mg/kg ip or Saline ip
[19] = 15 to 20 mins, Psilocybin 0.3 mg/kg sc 1 hr post Diazepam 4 mg/kg ip or Saline ip
[20] = 15 to 20 mins, Psilocybin 1 mg/kg sc 1 hr post Diazepam 4 mg/kg ip or Saline ip
[21] = 15 to 20 mins, Psilocybin 3 mg/kg sc 1 hr post Diazepam 4 mg/kg ip or Saline ip
[22] = 15 to 30 mins, Psilocybin 0.3 mg/kg sc 1 hr post Diazepam 4 mg/kg ip or Saline ip
[23] = 15 to 30 mins, Psilocybin 1 mg/kg sc 1 hr post Diazepam 4 mg/kg ip or Saline ip
[24] = 15 to 30 mins, Psilocybin 3 mg/kg sc 1 hr post Diazepam 4 mg/kg ip or Saline ip
[25] = 20 to 25 mins, Psilocybin 0.3 mg/kg sc 1 hr post Diazepam 4 mg/kg ip or Saline ip
[26] = 20 to 25 mins, Psilocybin 1 mg/kg sc 1 hr post Diazepam 4 mg/kg ip or Saline ip
[27] = 20 to 25 mins, Psilocybin 3 mg/kg sc 1 hr post Diazepam 4 mg/kg ip or Saline ip
[28] = 25 to 30 mins, Psilocybin 0.3 mg/kg sc 1 hr post Diazepam 4 mg/kg ip or Saline ip
[29] = 25 to 30 mins, Psilocybin 1 mg/kg sc 1 hr post Diazepam 4 mg/kg ip or Saline ip
[30] = 25 to 30 mins, Psilocybin 3 mg/kg sc 1 hr post Diazepam 4 mg/kg ip or Saline ip

CN(C)CCc1c[nH]c2cccc(OP(=O)(O)O)c12 [Psilocybin, psilocybin]
Head twitches Mean (Mouse [1]; [4]): 1.84 | Head twitches Mean (Mouse [1]; [5]): 2.42 | Head twitches Mean (Mouse [1]; [6]): 5.34 | Head twitches Mean (Mouse [1]; [7]): 5.57 | Head twitches Mean (Mouse [1]; [8]): 6.32 | Head twitches Mean (Mouse [1]; [9]): 12.4 | Head twitches Mean (Mouse [1]; [10]): 8.38 | Head twitches Mean (Mouse [1]; [11]): 8.98 | Head twitches Mean (Mouse [1]; [12]): 15.66 | Head twitches Mean (Mouse [1]; [13]): 1.64 | Head twitches Mean (Mouse [1]; [14]): 1.39 | Head twitches Mean (Mouse [1]; [15]): 4.67 | Head twitches Mean (Mouse [1]; [16]): 1.36 | Head twitches Mean (Mouse [1]; [17]): 1.44 | Head twitches Mean (Mouse [1]; [18]): 2.07 | Head twitches Mean (Mouse [1]; [19]): 0.93 | Head twitches Mean (Mouse [1]; [20]): 1.35 | Head twitches Mean (Mouse [1]; [21]): 1.07 | Head twitches Mean (Mouse [1]; [22]): 2.57 | Head twitches Mean (Mouse [1]; [23]): 2.39 | Head twitches Mean (Mouse [1]; [24]): 2.5 | Head twitches Mean (Mouse [1]; [25]): 0.39 | Head twitches Mean (Mouse [1]; [26]): 0.43 | Head twitches Mean (Mouse [1]; [27]): 0.66 | Head twitches Mean (Mouse [1]; [28]): 0.59 | Head twitches Mean (Mouse [1]; [29]): 0.15 | Head twitches Mean (Mouse [1]; [30]): 0.34 | solubility [2]: ~15 mg/mL (≈ 52.8 mM) | Ethovision data Mean (Mouse [3]; [4]): 801.48 | Ethovision data Mean (Mouse [3]; [5]): 826.56 | Ethovision data Mean (Mouse [3]; [6]): 785.38 | Ethovision data Mean (Mouse [3]; [7]): 2149.79 | Ethovision data Mean (Mouse [3]; [8]): 2025.10 | Ethovision data Mean (Mouse [3]; [9]): 1667.64 | Ethovision data Mean (Mouse [3]; [10]): 3782.48 | Ethovision data Mean (Mouse [3]; [11]): 3368.87 | Ethovision data Mean (Mouse [3]; [12]): 2403.79 | Ethovision data Mean (Mouse [3]; [13]): 704.55 | Ethovision data Mean (Mouse [3]; [14]): 665.97 | Ethovision data Mean (Mouse [3]; [15]): 516.00 | Ethovision data Mean (Mouse [3]; [16]): 641.76 | Ethovision data Mean (Mouse [3]; [17]): 519.27 | Ethovision data Mean (Mouse [3]; [18]): 353.03 | Ethovision data Mean (Mouse [3]; [19]): 517.51 | Ethovision data Mean (Mouse [3]; [20]): 430.23 | Ethovision data Mean (Mouse [3]; [21]): 271.26 | Ethovision data Mean (Mouse [3]; [22]): 1630.42 | Ethovision data Mean (Mouse [3]; [23]): 1337.33 | Ethovision data Mean (Mouse [3]; [24]): 719.96 | Ethovision data Mean (Mouse [3]; [25]): 519.96 | Ethovision data Mean (Mouse [3]; [26]): 444.11 | Ethovision data Mean (Mouse [3]; [27]): 208.90 | Ethovision data Mean (Mouse [3]; [28]): 551.06 | Ethovision data Mean (Mouse [3]; [29]): 430.12 | Ethovision data Mean (Mouse [3]; [30]): 213.04 | Mean head twitch responses (male C57BL/6J mice; 0-5 mins, Psilocybin 0.3 mg/kg sc 2 hr post Diazepam 1.25 mg/kg ip bid 14 days or Saline ip bid): 0.76 | Mean head twitch responses (male C57BL/6J mice; 0-5 mins, Psilocybin 0.3 mg/kg sc 24 hr post Diazepam 1.25 mg/kg ip bid 14 days or Saline ip bid): 1.81 | Mean head twitch responses (male C57BL/6J mice; 0-15 mins, Psilocybin 0.3 mg/kg sc 2 hr post Diazepam 1.25 mg/kg ip bid 14 days or Saline ip bid): 2.93 | Mean head twitch responses (male C57BL/6J mice; 0-15 mins, Psilocybin 0.3 mg/kg sc 24 hr post Diazepam 1.25 mg/kg ip bid 14 days or Saline ip bid): 5.65 | Mean head twitch responses (male C57BL/6J mice; 0-30 mins, Psilocybin 0.3 mg/kg sc 2 hr post Diazepam 1.25 mg/kg ip bid 14 days or Saline ip bid): 5.78 | Mean head twitch responses (male C57BL/6J mice; 0-30 mins, Psilocybin 0.3 mg/kg sc 24 hr post Diazepam 1.25 mg/kg ip bid 14 days or Saline ip bid): 9.70 | Mean head twitch responses (male C57BL/6J mice; 5-10 mins, Psilocybin 0.3 mg/kg sc 2 hr post Diazepam 1.25 mg/kg ip bid 14 days or Saline ip bid): 0.81 | Mean head twitch responses (male C57BL/6J mice; 5-10 mins, Psilocybin 0.3 mg/kg sc 24 hr post Diazepam 1.25 mg/kg ip bid 14 days or Saline ip bid): 2.25 | Mean head twitch responses (male C57BL/6J mice; 10-15 mins, Psilocybin 0.3 mg/kg sc 2 hr post Diazepam 1.25 mg/kg ip bid 14 days or Saline ip bid): 0.81 | Mean head twitch responses (male C57BL/6J mice; 10-15 mins, Psilocybin 0.3 mg/kg sc 24 hr post Diazepam 1.25 mg/kg ip bid 14 days or Saline ip bid): 1.04 | Mean head twitch responses (male C57BL/6J mice; 15-20 mins, Psilocybin 0.3 mg/kg sc 2 hr post Diazepam 1.25 mg/kg ip bid 14 days or Saline ip bid): 0.60 | Mean head twitch responses (male C57BL/6J mice; 15-20 mins, Psilocybin 0.3 mg/kg sc 24 hr post Diazepam 1.25 mg/kg ip bid 14 days or Saline ip bid): 1.70 | Mean head twitch responses (male C57BL/6J mice; 15-30 mins, Psilocybin 0.3 mg/kg sc 2 hr post Diazepam 1.25 mg/kg ip bid 14 days or Saline ip bid): 2.35 | Mean head twitch responses (male C57BL/6J mice; 15-30 mins, Psilocybin 0.3 mg/kg sc 24 hr post Diazepam 1.25 mg/kg ip bid 14 days or Saline ip bid): 3.60 | Mean head twitch responses (male C57BL/6J mice; 20-25 mins, Psilocybin 0.3 mg/kg sc 2 hr post Diazepam 1.25 mg/kg ip bid 14 days or Saline ip bid): 0.32 | Mean head twitch responses (male C57BL/6J mice; 20-25 mins, Psilocybin 0.3 mg/kg sc 24 hr post Diazepam 1.25 mg/kg ip bid 14 days or Saline ip bid): 0.43 | Mean head twitch responses (male C57BL/6J mice; 25-30 mins, Psilocybin 0.3 mg/kg sc 2 hr post Diazepam 1.25 mg/kg ip bid 14 days or Saline ip bid): 0.80 | Mean head twitch responses (male C57BL/6J mice; 25-30 mins, Psilocybin 0.3 mg/kg sc 24 hr post Diazepam 1.25 mg/kg ip bid 14 days or Saline ip bid): 1.16
